Usually IC50 stands for the concentration at which inhibition is half-maximal.

Like-named read-outs stand apart in the source and are kept apart here. Positions of bridges follow the written chain, without caps; N, C: chain ends. Residues, ends and D or L forms follow the SMILES beside them.

The values below come from article PMC11558128 (Advanced Science, 2024).

Series [1] relates to acutely isolated rat cardiomyocytes. The conditions noted are these: 3 mM, n = 6.
For another series, the target named is T1, rKv4.2 (Rattus norvegicus, UniProt Q63881).
T1 construct: expressed in transfected cells; host or cells: HEK293T
T1 sequence (Q63881 1-630): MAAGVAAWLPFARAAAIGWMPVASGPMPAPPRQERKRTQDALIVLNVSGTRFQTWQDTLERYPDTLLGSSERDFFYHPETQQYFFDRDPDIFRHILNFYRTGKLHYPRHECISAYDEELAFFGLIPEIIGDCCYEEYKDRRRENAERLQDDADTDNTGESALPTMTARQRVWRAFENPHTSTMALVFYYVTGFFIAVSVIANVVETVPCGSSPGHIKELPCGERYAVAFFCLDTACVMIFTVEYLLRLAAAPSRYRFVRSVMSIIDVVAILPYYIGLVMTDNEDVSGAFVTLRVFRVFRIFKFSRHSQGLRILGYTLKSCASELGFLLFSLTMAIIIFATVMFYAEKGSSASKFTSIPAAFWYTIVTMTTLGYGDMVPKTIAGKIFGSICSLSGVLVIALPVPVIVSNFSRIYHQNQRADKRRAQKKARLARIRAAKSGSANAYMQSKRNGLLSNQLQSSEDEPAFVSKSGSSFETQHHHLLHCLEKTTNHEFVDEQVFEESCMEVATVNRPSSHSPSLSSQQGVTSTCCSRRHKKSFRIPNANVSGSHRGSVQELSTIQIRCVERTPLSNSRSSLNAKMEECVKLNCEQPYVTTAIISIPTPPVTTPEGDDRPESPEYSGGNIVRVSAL
The series is described as follows: cell-based. Conditions: SEM; for IC50: whole-cell patch clamp, HEK293T, n = 3-8. Background: Patch clamp records ionic current or voltage across a cell membrane.

The next series has as its target T2, rKv4.3 (Rattus norvegicus, UniProt Q62897).
T2 construct: expressed in transfected cells; host or cells: HEK293T
T2 sequence (Q62897 1-655): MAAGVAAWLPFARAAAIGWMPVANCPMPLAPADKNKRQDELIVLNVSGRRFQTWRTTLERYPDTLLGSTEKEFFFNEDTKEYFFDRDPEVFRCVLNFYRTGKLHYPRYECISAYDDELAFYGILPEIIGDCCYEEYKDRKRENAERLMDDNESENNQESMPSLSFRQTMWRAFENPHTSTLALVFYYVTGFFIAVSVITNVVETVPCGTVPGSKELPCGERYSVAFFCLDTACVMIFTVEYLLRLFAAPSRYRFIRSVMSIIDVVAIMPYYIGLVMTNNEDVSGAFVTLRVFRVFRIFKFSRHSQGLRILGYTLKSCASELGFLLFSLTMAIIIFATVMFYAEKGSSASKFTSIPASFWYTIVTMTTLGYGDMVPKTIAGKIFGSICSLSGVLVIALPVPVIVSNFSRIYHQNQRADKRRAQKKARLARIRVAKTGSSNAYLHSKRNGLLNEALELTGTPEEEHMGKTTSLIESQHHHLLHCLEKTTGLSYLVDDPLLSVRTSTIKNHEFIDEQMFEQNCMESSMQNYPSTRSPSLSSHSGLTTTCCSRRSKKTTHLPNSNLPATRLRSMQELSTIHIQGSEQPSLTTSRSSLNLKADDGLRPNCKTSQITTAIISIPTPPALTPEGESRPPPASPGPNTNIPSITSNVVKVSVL
The series is described as follows: cell-based.

In a further series the target is T3, hNav1.7 (Homo sapiens, UniProt Q15858).
T3 construct: expressed in transfected cells; host or cells: HEK293T
T3 sequence (O60939 30-215): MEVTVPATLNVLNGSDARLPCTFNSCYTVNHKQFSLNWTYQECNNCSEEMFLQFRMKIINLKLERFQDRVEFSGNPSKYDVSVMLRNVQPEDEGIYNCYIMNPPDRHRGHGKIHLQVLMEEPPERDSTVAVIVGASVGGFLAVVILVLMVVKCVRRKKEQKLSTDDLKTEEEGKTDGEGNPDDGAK
T3 sequence (Q15858 other isoform, or with tags, fused parts or gaps): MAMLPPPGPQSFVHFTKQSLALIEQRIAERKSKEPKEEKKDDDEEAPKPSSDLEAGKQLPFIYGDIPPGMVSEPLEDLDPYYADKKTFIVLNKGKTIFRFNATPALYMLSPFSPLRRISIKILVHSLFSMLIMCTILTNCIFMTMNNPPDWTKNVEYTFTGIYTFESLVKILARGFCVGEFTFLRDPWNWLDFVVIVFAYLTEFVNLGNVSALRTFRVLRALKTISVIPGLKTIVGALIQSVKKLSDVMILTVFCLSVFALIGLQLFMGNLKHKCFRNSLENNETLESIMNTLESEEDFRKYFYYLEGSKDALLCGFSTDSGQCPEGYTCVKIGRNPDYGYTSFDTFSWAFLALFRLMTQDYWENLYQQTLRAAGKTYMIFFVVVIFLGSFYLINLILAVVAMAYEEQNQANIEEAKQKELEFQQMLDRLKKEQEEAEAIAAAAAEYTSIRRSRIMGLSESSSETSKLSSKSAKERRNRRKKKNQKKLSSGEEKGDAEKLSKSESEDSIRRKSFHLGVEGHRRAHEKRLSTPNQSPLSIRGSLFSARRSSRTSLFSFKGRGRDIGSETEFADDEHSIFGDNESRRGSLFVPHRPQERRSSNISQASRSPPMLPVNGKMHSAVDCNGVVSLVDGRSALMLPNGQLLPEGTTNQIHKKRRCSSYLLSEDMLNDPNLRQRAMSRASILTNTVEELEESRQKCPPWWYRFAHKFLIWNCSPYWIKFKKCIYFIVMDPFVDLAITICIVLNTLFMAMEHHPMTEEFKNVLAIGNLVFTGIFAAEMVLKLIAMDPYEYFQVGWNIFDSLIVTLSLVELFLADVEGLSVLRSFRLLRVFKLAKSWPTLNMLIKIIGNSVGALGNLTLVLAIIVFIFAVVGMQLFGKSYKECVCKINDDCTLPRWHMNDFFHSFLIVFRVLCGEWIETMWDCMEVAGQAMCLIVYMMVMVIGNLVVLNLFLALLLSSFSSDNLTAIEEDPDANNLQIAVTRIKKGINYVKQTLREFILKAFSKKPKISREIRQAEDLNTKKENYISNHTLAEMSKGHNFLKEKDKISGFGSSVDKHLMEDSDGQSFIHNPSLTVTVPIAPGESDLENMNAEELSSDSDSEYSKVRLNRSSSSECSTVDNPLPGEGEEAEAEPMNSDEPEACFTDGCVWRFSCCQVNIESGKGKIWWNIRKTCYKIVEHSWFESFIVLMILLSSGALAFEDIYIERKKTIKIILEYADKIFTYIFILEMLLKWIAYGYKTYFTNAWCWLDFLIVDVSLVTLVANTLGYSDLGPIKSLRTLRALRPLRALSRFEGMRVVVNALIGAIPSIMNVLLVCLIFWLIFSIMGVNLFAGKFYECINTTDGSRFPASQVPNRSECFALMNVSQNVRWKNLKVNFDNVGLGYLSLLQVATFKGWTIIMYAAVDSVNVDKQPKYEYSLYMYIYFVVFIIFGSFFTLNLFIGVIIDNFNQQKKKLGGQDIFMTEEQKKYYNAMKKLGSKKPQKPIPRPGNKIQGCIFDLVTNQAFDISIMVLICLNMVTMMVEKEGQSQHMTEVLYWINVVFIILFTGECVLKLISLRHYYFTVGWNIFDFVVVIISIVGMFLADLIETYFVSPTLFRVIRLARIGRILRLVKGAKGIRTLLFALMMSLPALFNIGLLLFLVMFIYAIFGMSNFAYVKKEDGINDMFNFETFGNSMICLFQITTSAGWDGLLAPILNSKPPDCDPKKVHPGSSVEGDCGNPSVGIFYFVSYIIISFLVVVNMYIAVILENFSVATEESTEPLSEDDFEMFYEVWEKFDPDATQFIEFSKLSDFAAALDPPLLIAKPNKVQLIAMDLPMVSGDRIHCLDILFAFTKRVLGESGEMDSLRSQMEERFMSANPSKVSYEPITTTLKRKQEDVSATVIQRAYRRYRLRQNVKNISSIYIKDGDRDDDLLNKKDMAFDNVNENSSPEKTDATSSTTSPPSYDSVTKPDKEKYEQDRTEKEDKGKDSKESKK
T3 sequence (Q07699 19-218, further chain): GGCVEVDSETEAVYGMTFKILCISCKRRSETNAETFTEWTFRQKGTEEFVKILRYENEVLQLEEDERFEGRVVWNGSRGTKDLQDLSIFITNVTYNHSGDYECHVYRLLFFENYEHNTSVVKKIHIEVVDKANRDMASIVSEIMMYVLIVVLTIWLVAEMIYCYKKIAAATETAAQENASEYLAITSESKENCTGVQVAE
The series is described as follows: cell-based. The conditions noted are these: whole-cell patch clamp, HEK293T, SEM.

Setting [2] is: same toxin concentrations (footnote b160), mean ± S.E.M., SEM.
Where [3] appears, read: mean ± SEM, this study, read-out: IC50 on hNav1.7.
The mark [4] stands for this setting: mean ± SEM, read-out: IC50 on rKv4.2 WT.

On to `Nc1ccncc1` [4-AP, 4-aminopyridine], for which, in series [1], the “effect on action potential duration (APD), 4-AP” value is “significantly prolonged”.

For the compound `CC(C)C[C@H](NC(=O)[C@H](CC(=O)O)NC(=O)[C@H](Cc1ccc(O)cc1)NC(=O)[C@H](CCCCN)NC(=O)[C@@H]1CSSC[C@@H]2NC(=O)[C@H](CCC(N)=O)NC(=O)[C@H](CC(=O)O)NC(=O)[C@H](CC(N)=O)NC(=O)[C@H](CO)NC(=O)[C@@H]3CCCN3C(=O)[C@H](CC(N)=O)NC(=O)[C@@H]3CSSC[C@H](NC(=O)[C@H](C(C)C)NC(=O)[C@H](CC(C)C)NC(=O)[C@H](CO)NC(=O)[C@H](CO)NC(=O)[C@H](CO)NC(=O)[C@H](CCCCN)NC(=O)[C@H](CSSC[C@H](NC(=O)[C@H](C)N)C(=O)N[C@@H](CC(C)C)C(=O)NCC(=O)N[C@@H](Cc4ccccc4)C(=O)NCC(=O)N[C@@H](CCC(=O)O)C(=O)N[C@@H](CCCCN)C(=O)N3)NC2=O)C(=O)N[C@@H](CO)C(=O)N[C@@H](CCC(N)=O)C(=O)N[C@@H](CCCCN)C(=O)N[C@@H](Cc2c[nH]cn2)C(=O)N[C@@H](CCCCN)C(=O)N[C@@H](Cc2c[nH]c3ccccc23)C(=O)N1)C(N)=O` [Ca2a], the “Hill coefficients on rKv4.2” value on rKv4.2 (Hill fit of concentration-response curves, mean ± S.E.M., n = 4-8) is 1.05 ± 0.17. Further, on rKv4.2, the “rKv4.2 voltage dependence of activation, V1/2 with toxin” value was found to be 42.0±2.1 mV and the “rKv4.2 voltage dependence of inactivation, V1/2 with toxin” value is listed as -54.3±1.4 mV. For the same compound, on rKv4.3 (SEM), the “rKv4.3 voltage dependence of activation, V1/2 with toxin” value is listed as 59.0±3.0 mV and the “rKv4.3 voltage dependence of inactivation, V1/2 with toxin” value is reported as -48.1±2.0 mV. Further, on rKv4.3 (setting [2]), the “rKv4.3 voltage dependence of activation, κ with toxin” value was 12.2±0.9 mV and the “rKv4.3 voltage dependence of inactivation, κ with toxin” value was found to be 4.5±0.2 mV. Further, the “influence on the steady-state inactivation of rKv4.3” value at rKv4.3 (sub-saturation concentration) was “almost no influence”.

For the compound `CC(C)C[C@H](NC(=O)[C@H](Cc1ccc(O)cc1)NC(=O)[C@@H](NC(=O)[C@H](CCCCN)NC(=O)[C@@H]1CSSC[C@@H]2NC(=O)[C@H](CCC(=O)O)NC(=O)[C@H](CC(N)=O)NC(=O)[C@H](CCCCN)NC(=O)CNC(=O)[C@@H]3CCCN3C(=O)[C@H]([C@@H](C)O)NC(=O)[C@@H]3CSSC[C@H](NC(=O)[C@H](C)NC(=O)[C@H](Cc4ccc(O)cc4)NC(=O)[C@H](C)NC(=O)[C@@H]4CCCN4C(=O)[C@H](CSSC[C@H](NC(=O)CN)C(=O)N[C@@H](CCCCN)C(=O)NCC(=O)N[C@@H](Cc4ccccc4)C(=O)NCC(=O)N[C@@H](CC(=O)O)C(=O)N[C@@H](CO)C(=O)N3)NC2=O)C(=O)N[C@@H](CO)C(=O)N[C@@H](CO)C(=O)N[C@@H](CCCCN)C(=O)N[C@@H](Cc2c[nH]cn2)C(=O)N[C@@H](CCCCN)C(=O)N[C@@H](Cc2c[nH]c3ccccc23)C(=O)N1)C(C)C)C(N)=O` [N19A] (H-GCKGFGDSCTPGKNECCPAYACSSKHKWCKVYL-NH2; disulfide 2-17, 9-22, 16-29), the IC50 on hNav1.7 (setting [3]) came to 116 ± 9 nM; at rKv4.2 (setting [4]) it was 64 ± 9 nM.

Take `CC(C)C[C@H](NC(=O)[C@H](Cc1ccc(O)cc1)NC(=O)[C@@H](NC(=O)[C@H](CCCCN)NC(=O)[C@@H]1CSSC[C@@H]2NC(=O)[C@H](CCC(=O)O)NC(=O)[C@H](CC(N)=O)NC(=O)[C@H](CCCCN)NC(=O)CNC(=O)[C@@H]3CCCN3C(=O)[C@H]([C@@H](C)O)NC(=O)[C@@H]3CSSC[C@H](NC(=O)[C@H](C)NC(=O)[C@H](C)NC(=O)[C@H](CC(N)=O)NC(=O)[C@@H]4CCCN4C(=O)[C@H](CSSC[C@H](NC(=O)CN)C(=O)N[C@@H](CCCCN)C(=O)NCC(=O)N[C@@H](Cc4ccccc4)C(=O)NCC(=O)N[C@@H](CC(=O)O)C(=O)N[C@@H](CO)C(=O)N3)NC2=O)C(=O)N[C@@H](CO)C(=O)N[C@@H](CO)C(=O)N[C@@H](CCCCN)C(=O)N[C@@H](Cc2c[nH]cn2)C(=O)N[C@@H](CCCCN)C(=O)N[C@@H](Cc2c[nH]c3ccccc23)C(=O)N1)C(C)C)C(N)=O` [Y20A] (H-GCKGFGDSCTPGKNECCPNAACSSKHKWCKVYL-NH2; disulfide 2-17, 9-22, 16-29): the IC50 on hNav1.7 (setting [3]) came to 7160 ± 528 nM; at rKv4.2 (setting [4]), 4000 ± 2000 nM.

For the compound `CC(C)C[C@H](NC(=O)[C@H](Cc1ccc(O)cc1)NC(=O)[C@@H](NC(=O)[C@H](CCCCN)NC(=O)[C@@H]1CSSC[C@@H]2NC(=O)[C@H](CCC(=O)O)NC(=O)[C@H](CC(N)=O)NC(=O)[C@H](CCCCN)NC(=O)CNC(=O)[C@@H]3CCCN3C(=O)[C@H]([C@@H](C)O)NC(=O)[C@@H]3CSSC[C@H](NC(=O)[C@H](C)NC(=O)[C@H](Cc4c[nH]c5ccccc45)NC(=O)[C@H](CC(N)=O)NC(=O)[C@@H]4CCCN4C(=O)[C@H](CSSC[C@H](NC(=O)CN)C(=O)N[C@@H](CCCCN)C(=O)NCC(=O)N[C@@H](Cc4ccccc4)C(=O)NCC(=O)N[C@@H](CC(=O)O)C(=O)N[C@@H](CO)C(=O)N3)NC2=O)C(=O)N[C@@H](CO)C(=O)N[C@@H](CO)C(=O)N[C@@H](CCCCN)C(=O)N[C@@H](Cc2c[nH]cn2)C(=O)N[C@@H](CCCCN)C(=O)N[C@@H](Cc2c[nH]c3ccccc23)C(=O)N1)C(C)C)C(N)=O` [Y20W] (H-GCKGFGDSCTPGKNECCPNWACSSKHKWCKVYL-NH2; disulfide 2-17, 9-22, 16-29), the IC50 on hNav1.7 (setting [3]) is 495 ± 39 nM; at rKv4.2 (setting [4]), 228 ± 33 nM.

For the compound `CC(C)C[C@H](NC(=O)[C@H](C)NC(=O)[C@@H](NC(=O)[C@H](CCCCN)NC(=O)[C@@H]1CSSC[C@@H]2NC(=O)[C@H](CCC(=O)O)NC(=O)[C@H](CC(N)=O)NC(=O)[C@H](CCCCN)NC(=O)CNC(=O)[C@@H]3CCCN3C(=O)[C@H]([C@@H](C)O)NC(=O)[C@@H]3CSSC[C@H](NC(=O)[C@H](C)NC(=O)[C@H](Cc4ccc(O)cc4)NC(=O)[C@H](CC(N)=O)NC(=O)[C@@H]4CCCN4C(=O)[C@H](CSSC[C@H](NC(=O)CN)C(=O)N[C@@H](CCCCN)C(=O)NCC(=O)N[C@@H](Cc4ccccc4)C(=O)NCC(=O)N[C@@H](CC(=O)O)C(=O)N[C@@H](CO)C(=O)N3)NC2=O)C(=O)N[C@@H](CO)C(=O)N[C@@H](CO)C(=O)N[C@@H](CCCCN)C(=O)N[C@@H](Cc2c[nH]cn2)C(=O)N[C@@H](CCCCN)C(=O)N[C@@H](Cc2c[nH]c3ccccc23)C(=O)N1)C(C)C)C(N)=O` [Y32A] (H-GCKGFGDSCTPGKNECCPNYACSSKHKWCKVAL-NH2; disulfide 2-17, 9-22, 16-29), the figures for the IC50 at hNav1.7 (setting [3]) and on rKv4.2 (setting [4]) were 936 ± 123 nM and 1000 ± 177 nM, respectively.

As for `CC[C@H](C)[C@@H]1NC(=O)[C@@H]2CSSC[C@@H]3NC(=O)[C@H](C(C)C)NC(=O)[C@H](CC(C)C)NC(=O)[C@H](CC(N)=O)NC(=O)[C@@H]4CCCN4C(=O)[C@H](CCCNC(=N)N)NC(=O)[C@H](CSSC[C@H](NC(=O)[C@@H](N)CC(=O)O)C(=O)N[C@@H](CC(C)C)C(=O)NCC(=O)N[C@@H](C)C(=O)N[C@@H](Cc4ccccc4)C(=O)N[C@@H](CCCNC(=N)N)C(=O)N[C@@H](CCCCN)C(=O)N2)NC(=O)[C@H](CSSC[C@@H](C(=O)N[C@@H](CCCCN)C(=O)N[C@@H](Cc2ccc(O)cc2)C(=O)N[C@H](C(=O)N[C@@H](Cc2ccccc2)C(N)=O)C(C)C)NC(=O)[C@H](Cc2c[nH]c4ccccc24)NC(=O)[C@H](CCCNC(=N)N)NC(=O)[C@H](Cc2c[nH]cn2)NC(=O)[C@H](CC(C)C)NC(=O)[C@H](C)NC(=O)[C@H](CO)NC3=O)NC(=O)[C@H](CCCCN)NC(=O)[C@H](CC(=O)O)NC(=O)[C@H](CC(N)=O)NC(=O)[C@H](CC(=O)O)NC(=O)[C@@H]2CCCN2C1=O` [mGpTx1-R25A] (H-DCLGAFRKCIPDNDKCCRPNLVCSALHRWCKYVF-NH2; disulfide 2-17, 9-23, 16-30), the IC50 at hNav1.7 (hNav1.7 with β1 and β2, held at -90 mV, step to 0 mV, mean ± S.E.M., n = 3-7, read-out: IC50 for hNav1.7) was 1.3 ± 0.1 nM; on rKv4.2 (held at -80 mV, step to 0 mV, mean ± S.E.M., read-out: IC50 for rKv4.2), 57.2 ± 6.2 nM.
